[C(1O2)] = modified PNA monomer acting as cytosine, C(pOq) type, 1O2; [A(6)] = modified PNA monomer acting as adenine, A(p) type, p=6; [G(6)] = modified PNA monomer acting as guanine, G(p) type, p=6; {Fethoc} = N-terminal Fethoc cap; {NH2} = C-terminal amide

One series has as its system full-length SNAP25 mRNA. As to the kind of experiment: SNAP25 nested qPCR in PC12 cells. Type of series: cell-based, rat. How it is done:
[Cell Culture & ASO Treatment] PC12 cells grown in 60 mm culture dish containing 5 mL culture medium were treated with “SNAP-ASO 3” at 0 (negative control), 10, 100 or 1,000 zM. (2 culture dishes per ASO concentration) [RNA Extraction & cDNA Synthesis by One-step RT-PCR] Following an incubation with “SNAP-ASO 3” for 42 hours, the cells were treated 100 μg/mL cycloheximide for another 6 hours to freeze the ribosomal translation. Then total RNA was extracted from cells using “Universal RNA Extraction Kit” (Cat. Number 9767, Takara) according to the manufacturer's instructions. […] NO: 130); and SNAP-exon 14_reverse: (5'→3') […] [Nested qPCR Amplification] […] NO: 132); and SNAP-exon 8q_reverse: (5'→3') […] The qPCR reaction was followed with a Taqman probe of [(5'→3') 5,6-[…] NO: 134)] targeting the junction of exon 7 and exon 8 in order to quantify the full-length SNAP25 mRNA.
In general terms: Real-time PCR tracks product formation cycle by cycle.

The subject of series [1] is SNAP25 protein. As to the kind of experiment: SNAP25 western blot in PC12 cells. Type of series: cell-based, rat. Particulars: 100 or 1,000 zM, 48 hours or 72 hours. Here is the method: “SNAP-ASO 3” was evaluated for its ability to inhibit the expression of the SNAP25 protein in PC12 cells as follows.
PC12 cells were grown in 60 mm culture dish containing 5 mL culture medium, and treated with “SNAP-ASO 3” at 0 zM (negative control), 1 zM, 10 zM, 30 zM, 100 zM, 300 zM, 1 aM, 3 aM or 10 aM for 48 hours. There were 4 culture dishes of the negative control to compensate for potential technical artifacts during the western blot analysis.
[Cell Lysis] Then the cells were subjected to lysis on ice with 200 μL 1×RIPA buffer (Cat. Number 9806, Cell Signaling Tech) supplemented with 1% SDS and 1× proteinase inhibitors cocktail (cOmplete Mini, Roche). The lysates were collected in 1.5 mL e-tube, mixed with 100 μL 5× sample buffer, and boiled for 5 min.
[Western Blot] The lysates were subjected to electrophoretic separation on a 4-15% TGX-PAGE gradient gel (Cat. Number 456-1086, Bio-Rad) and then transferred onto a 0.45 μm PVDF membrane. The membrane was probed with an anti-SNAP25 antibody (Cat. Number S9684, Sigma) and an anti-β-actin antibody (Cat. Number A3845, Sigma).
“SNAP-ASO 1” was evaluated for its ability to inhibit the SNAP25 protein expression in PC12 cells as described in “SNAP25 Example 4”, unless noted otherwise. PC12 cells were treated with “SNAP-ASO 1” at 0 (negative control), 100 or 1,000 zM either for 48 hours or for 72 hours. […]
Background: A western blot detects proteins with antibodies after separation by electrophoresis.

Series [2] relates to SNAP25 protein. As to the kind of experiment: SNAP25 IHC in skin of mice after topical administration. In kind it is in vivo, C57BL/6 mice. To be noted: topical 1, 10 or 100 fM solution, twice per day Days 0 to 4. Here is the method:
“SNAP-ASO 1” is a 16-mer ASO fully complementary to the 3′ splice site spanning the junction of intron 6 and exon 7 in the mouse SNAP25 pre-mRNA read out from the mouse genomic DNA [accessed from NCBI Reference Sequence: NC_000068]. “SNAP-ASO 1” was evaluated for its ability to inhibit the expression of SNAP25 protein in the skin upon topical administration as follows.
[Hair Cut and Grouping] In Day 0, 8 female C57BL/6 mice (5 weeks old) were anesthetized with zoletil/rompun, and the hair in the back (ca 3 cm×4 cm) was cut with a clipper. The mice were randomly assigned into 4 groups, i.e., no ASO treatment group (negative control) and 3 treatment groups of 1 fM, 10 fM and 100 fM “SNAP-ASO 1”. (2 animals per group)
[Topical Administration] Topical solutions were prepared by serially diluting an aqueous stock solution of “SNAP-ASO 1” in 30% (v/v) aqueous ethanol supplemented with 3% (v/v) glycerin to 0, 1, 10 and 100 fM “SNAP-ASO 1”. […]
[SNAP25 IHC] Skin samples were cryo-sectioned and immunostained in series with a primary anti-SNAP25 antibody (Cat. Number ab41455, Abcam) at 1:200 dilution, with a secondary anti-IgG (Cat Number BA-1100, Vector) at 1:200 dilution, and then with Dylight 594-streptavidin (Cat Number SA-5594, Vector, CA, USA) at 1:200 dilution for red fluorescence tagging. […]

For a further series, the system named is 10-mer complementary DNA. As to the kind of experiment: Tm between PNA derivatives and 10-mer complementary DNA (N- or C-terminal). In kind it is binding. To be noted: uncorrected. In short, it runs like this:
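Tm read by UV at 260 nm for duplexes formed by annealing (90 °C for a minute, slow cooling to ambient) of equimolar 4 μM PNA and complementary 10-mer DNA targeting N- or C-terminal, in 10 mM sodium phosphate, 100 mM NaCl, pH 7.16.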

Another series concerns mouse TYR pre-mRNA. As to the kind of experiment: TYR nested PCR for exon skipping in B16F10 cells. Type of series: cell-based. To be noted: 1 to 1,000 aM, 5 hours. Here is the method: “TYR-ASO 4” was evaluated for its ability to induce the skipping of the mouse TYR exon 2 in B16F10 melanoma cells as follows. “TYR-ASO 4” may serve as a good surrogate compound for “TYR-ASO 1” which is fully complementary to the human TYR pre-mRNA. [Cell Culture & ASO Treatment] B16F10 mouse melanoma cells (Cat. Number CRL-6475, ATCC) were maintained in DMEM (Dulbecco's modified Eagle's essential minimum medium) supplemented with 10% FBS, 1% streptomycin/penicillin, and 0.01 mg/ml bovine insulin. B16F10 cells grown in 60 mm culture dish containing 5 mL DMEM were incubated for 5 hours with “TYR-ASO 4” at 0 (negative control), 1, 10, 100 or 1000 aM. [RNA Extraction & cDNA Synthesis by One-step PCR] Total RNA was extracted using “Universal RNA Extraction Kit” (Cat. Number 9767, Takara) according to the manufacturer's instructions. […] NO: 142); and TYR-exon 4_reverse: (5'→3') […] [Nested PCR Amplification] […] NO: 144); and TYR-exon 4n_reverse: (5'→3') […] [Identification of Exon Skipping Products] The PCR products were subjected to electrophoretic separation on a 2% agarose gel. The bands of target size were collected and analyzed by Sanger Sequencing.

The test system of series [3] is full-length TYR mRNA. Briefly: TYR nested qPCR in B16F10 cells. In kind it is cell-based, mouse. Particulars: 1 to 1,000 aM. How it is done: [Cell Culture & ASO Treatment] B16F10 cells grown in 60 mm culture dish containing 5 mL culture medium were treated with “TYR-ASO 4” at 0 (negative control), 1, 10, 100 or 1000 aM. (2 culture dishes per dose)
[RNA Extraction & cDNA Synthesis by One-step PCR] Total RNA was extracted and subjected to cDNA synthesis as described in “TYR Example 1”.
[Nested qPCR Amplification]
[Statistical Analysis] The nested qPCR experiment was repeated independently four times, and individual mRNA levels from each experiment were normalized against the mRNA level without ASO treatment. The mRNA levels obtained from all the 4 separate experiments were pooled for statistical analysis by student's t-test. Thus the number of RNA samples is 8 per ASO concentration.

For another series, the system named is TYR protein. Briefly: TYR western blot in B16F10 cells. Type of series: cell-based, mouse. Particulars: 10 zM to 10 aM, 24 hours. Here is the method: “TYR-ASO 4” was evaluated for its ability to inhibit the expression of TYR protein in B16F10 cells as described below.
B16F10 cells grown in 60 mm culture dish containing 5 mL culture medium were treated with “TYR-ASO 4” for 24 hours at 0 zM (negative control), 10 zM, 100 zM, 1 aM or 10 aM, and subjected to lysis with 200 μL 1× cell lysis buffer (Cat. No. 9803, Cell Signaling Tech) supplemented with 1× protease inhibitors cocktail (Cat. No. P8340, Sigma). 200 μL of each lysate was mixed with 100 μL 5× sample buffer, and boiled at 100° C. for 5 min. 20 μL of each lysate was subjected to electrophoretic separation on a 4-15% gradient TGX gel (Cat No. 456-1086, Bio-Rad), and protein transfer onto a 0.45 μm PVDF membrane. The membrane was probed with an anti-TYR antibody (Cat. No. 9319, Cell Signaling Tech) and an anti-3-actin antibody (Cat. No. a3845, Sigma).

For series [4], the system named is melanogenesis in B16F10 cells. As to the kind of experiment: Melanin content (melanogenesis) in B16F10 cells. Particulars: 1 to 1,000 aM, 24 hours. Type of series: cell-based, mouse. How it is done:
“TYR-ASO 4” was evaluated for its ability to inhibit the melanogenesis in B16F10 cells as described below.
B16F10 cells grown in 60 mm culture dish containing 5 mL culture medium were treated either with “TYR-ASO 4” at 0 (negative control) or 1 to 1,000 aM, or with 10 or 100 μg/mL arbutin as a positive control. (2 culture dishes per dose) 24 hours later, the cells were subjected to lysis with 200 μL 1N NaOH. Each lysate was collected in 1.5 mL e-tube, and kept overnight at room temperature. The melanin content in each lysate was determined by absorbance at 475 nm on an ELISA reader. The experiment was repeated four times using cells at different passage. The four sets of the melanin content data were pooled for statistical analysis by student's t-test against the melanin content without treatment (negative control).

The test system of series [5] is full-length TYR mRNA. Briefly: TYR nested qPCR in human primary epidermal melanocytes. Type of series: cell-based. To be noted: 1 zM to 10 aM, 5 hours. How it is done:
[Cell Culture & ASO Treatment] Primary epidermal melanocytes (Cat. Number PCS-200-013, ATCC) cells were maintained in Dermal Cell Basal Medium (Cat Number PCS-200-030, ATCC) supplemented with Adult Melanocyte Growth Kit Component (Cat. Number PCS-200-042, ATCC). Melanocytes grown in 60 mm culture dish containing 5 mL culture medium were treated with “TYR-ASO 1” at 0 zM (negative control), 1 zM, 100 zM, or 10 aM. (3 culture dishes per concentration) [RNA Extraction & cDNA Synthesis by One-step PCR] Following an incubation with “TYR-ASO 1” for 5 hours, total RNA was extracted using “RNeasy Mini Kit” (Cat. Number 74106, Qiagen) according to the manufacturer's instructions. […] NO: 147); and TYR-exon 5_reverse: (5'→3') […] [Nested PCR Amplification] […] NO: 149); and TYR-exon 3n_reverse: (5'→3') […] NO: 150)] against a Taqman probe [(5'→3') 5,6-[…] NO: 151)].

For the substance “Fethoc-A(6)TT-TG(6)T-TA(6)C-CC(1O2)T-GG(6)G-A(6)-NH2 (ATTTGTTACCCTGGGA; all peptide nucleic acid (PNA), [A(6)] at 1, 8, 16, [G(6)] at 5, 14, [C(1O2)] at 11, 5' {Fethoc}, 3' {NH2}; peptide nucleic acid written N to C) [SNAP-ASO 1]”, the “decrease of full-length SNAP25 mRNA level (qPCR)” value is recorded as ~50% with full-length SNAP25 mRNA (PC12 cells, 10 zM); 40% in the series with full-length SNAP25 mRNA (PC12 cells, 100 zM); 70% in the series with full-length SNAP25 mRNA (PC12 cells, 1,000 zM). Further, the “expression of the SNAP25 protein (western blot)” value with SNAP25 protein [1] is listed as “considerably inhibited”. In the series with SNAP25 protein [2], the “SNAP25 protein expression in the muscle layer of skin (IHC)” value was “gradually decreased as the dose was increased”.
Turning to “Fethoc-CA(5)A-A(5)TG-A(5)TC(1O2)-TG(6)T-G-NH2 (antisense CAAATGATCTGTG; chemistry not fully specified) [TYR-ASO 4]”, in the series with 10-mer complementary DNA, the “Tm Value, 10-mer DNA against C-Terminal” value came out at 72.0 °C and the “Tm Value, 10-mer DNA against N-Terminal” value was determined as 72.0 °C. Moreover, the “TYR exon skipping by nested PCR” value in the series with mouse TYR pre-mRNA was “yielded essentially only the splice variant TYR mRNA lacking exons 2 and 3”. Besides, the “decrease of full-length TYR mRNA level (qPCR)” value in the series on full-length TYR mRNA [3] is given as ~40%. Also, the “TYR protein level (western blot)” value with TYR protein is reported as “considerably higher in the lysates of the negative control”. Besides, in [4], the “decrease of melanin content” value was ~15%.
Consider “Fethoc-CA(5)G-ACA(5)-ATC(1O2)-TG(6)T-A(5)-NH2 (antisense CAGACAATCTGTA; chemistry not fully specified) [TYR-ASO 1]”, for which, in the series on 10-mer complementary DNA, the “Tm Value, 10-mer DNA against C-Terminal” value was determined as 73.0 °C and the “Tm Value, 10-mer DNA against N-Terminal” value is 78.0 °C. Also, the “decrease of full-length TYR mRNA level (qPCR)” value in the series on full-length TYR mRNA [5] is listed as ~30%.
